In US9073853B2, “Cycloalkane carboxylic acid derivatives as CXCR3 receptor antagonists” (Sanofi, priority 2011, dated 2015):

The compounds below were run against human CXCR3-A receptor (Homo sapiens (Human), UniProt P49682) (assay: 125I-CXCL10 competition radioligand binding assay). Conditions: displacement of 125I-CXCL10 from membranes of CHO cells expressing human recombinant CXCR3-A.
How it was run: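 Membranes from a recombinant cell line expressing human CXCR3-A (10-20 μg protein) were incubated with 125I-CXCL10 and test compound for 60 min at 25° C, then filtered onto PEI-soaked GF/B filters and gamma-counted. IC50 and Hill slope came from four-parameter nonlinear fitting of competition curves.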

Chain of human CXCR3-A receptor (P49682 whole entry): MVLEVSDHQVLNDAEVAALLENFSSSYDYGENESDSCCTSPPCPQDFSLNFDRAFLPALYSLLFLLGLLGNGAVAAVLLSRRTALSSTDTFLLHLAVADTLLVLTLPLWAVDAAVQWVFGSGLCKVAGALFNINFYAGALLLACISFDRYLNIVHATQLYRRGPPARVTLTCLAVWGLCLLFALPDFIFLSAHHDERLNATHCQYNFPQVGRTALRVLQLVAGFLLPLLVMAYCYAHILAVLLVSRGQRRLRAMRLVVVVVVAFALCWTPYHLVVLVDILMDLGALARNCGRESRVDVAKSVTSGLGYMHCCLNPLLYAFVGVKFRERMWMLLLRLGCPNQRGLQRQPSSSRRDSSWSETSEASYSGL

Row | IC50 [nM] | SMILES
1 | 2900 | COc1cc(CN(C(C)c2ccc3c(c2)CCO3)[C@H]2C[C@H](C(=O)O)C2)ccc1OCCn1c(=O)ccn(C)c1=O (stereo partly drawn) [Example 120, trans-3-([1-(2,3-Dihydro-benzofuran-5-yl)-ethyl]-{3-methoxy-4-[2-(3-methyl-2,6-dioxo-3,6-dihydro-2H-pyrimidin-1-yl)-ethoxy]-benzyl}-amino)-cyclobutanecarboxylic acid]
2 | 152 | COc1cc(CN(C(C)c2ccc3c(c2)CCO3)[C@H]2C[C@@H](C(=O)O)C2)ccc1OCCn1c(=O)ccn(C)c1=O (stereo partly drawn) [Example 121, cis-3-([1-(2,3-Dihydro-benzofuran-5-yl)-ethyl]-{3-methoxy-4-[2-(3-methyl-2,6-dioxo-3,6-dihydro-2H-pyrimidin-1-yl)-ethoxy]-benzyl}-amino)-cyclobutanecarboxylic acid]
3 | 70 | COc1cc(CN([C@H]2C[C@@H](C(=O)O)C2)[C@H](C)c2ccc3c(c2)CCO3)ccc1OCCn1c(=O)ccn(C)c1=O [Example 122, cis-3-([(R)-1-(2,3-Dihydro-benzofuran-5-yl)-ethyl]-{3-methoxy-4-[2-(3-methyl-2,6-dioxo-3,6-dihydro-2H-pyrimidin-1-yl)-ethoxy]-benzyl}-amino)-cyclobutanecarboxylic acid]
4 | 7000 | COc1cc(CN([C@H]2C[C@@H](C(=O)O)C2)[C@@H](C)c2ccc3c(c2)CCO3)ccc1OCCn1c(=O)ccn(C)c1=O [Example 123, cis-3-([(S)-1-(2,3-Dihydro-benzofuran-5-yl)-ethyl]-{3-methoxy-4-[2-(3-methyl-2,6-dioxo-3,6-dihydro-2H-pyrimidin-1-yl)-ethoxy]-benzyl}-amino)-cyclobutanecarboxylic acid]
5 | 465 | Cc1cc(CN(C(C)c2ccc(Cl)c(F)c2)[C@H]2C[C@@H](C(=O)O)C2)ccc1OCCN1C(=O)CCC1=O (stereo partly drawn) [Example 125, cis-3-([1-(4-Chloro-3-fluoro-phenyl)-ethyl]-{4-[2-(2,5-dioxo-pyrrolidin-1-yl)-ethoxy]-3-methyl-benzyl}-amino)-cyclobutanecarboxylic acid]
6 | 1090 | COc1cc(CN(C2CC(C(=O)O)C2)C2CCc3cc(Cl)ccc32)ccc1OCCN1C(=O)CCC1=O (stereo not drawn) [Example 127, 3-((5-Chloro-indan-1-yl)-{4-[2-(2,5-dioxo-pyrrolidin-1-yl)-ethoxy]-3-methoxy-benzyl}-amino)-cyclobutanecarboxylic acid]
7 | 105 | Cc1cc([C@@H](C)N(Cc2ccc(OCCN3C(=O)CCC3=O)c(C)c2)[C@H]2C[C@@H](C(=O)O)C2)ccc1Cl [Example 129, cis-3-([(R)-1-(4-Chloro-3-methyl-phenyl)-ethyl]-{4-[2-(2,5-dioxo-pyrrolidin-1-yl)-ethoxy]-3-methyl-benzyl}-amino)-cyclobutanecarboxylic acid]
8 | 5300 | Cc1cc([C@H](C)N(Cc2ccc(OCCN3C(=O)CCC3=O)c(C)c2)[C@H]2C[C@H](C(=O)O)C2)ccc1Cl [Example 130]
9 | 6500 | Cc1cc([C@H](C)N(Cc2ccc(OCCN3C(=O)CCC3=O)c(C)c2)[C@H]2C[C@@H](C(=O)O)C2)ccc1Cl [Example 131, cis-3-([(S)-1-(4-Chloro-3-methyl-phenyl)-ethyl]-{4-[2-(2,5-dioxo-pyrrolidin-1-yl)-ethoxy]-3-methyl-benzyl}-amino)-cyclobutanecarboxylic acid]
10 | 170 | Cc1cc(CN([C@H]2C[C@@H](C(=O)O)C2)[C@H](C)c2ccc(Cl)cc2)ccc1OCCN1C(=O)CCC1=O [Example 132, cis-3-([(R)-1-(4-Chloro-phenyl)-ethyl]-{4-[2-(2,5-dioxo-pyrrolidin-1-yl)-ethoxy]-3-methyl-benzyl}-amino)-cyclobutanecarboxylic acid]
11 | 1640 | Cc1cc(CN(C2CCc3cc(Cl)ccc32)[C@H]2C[C@@H](C(=O)O)C2)ccc1OCCN1C(=O)CCC1=O (stereo partly drawn) [Example 133, cis-3-((5-Chloro-indan-1-yl)-{4-[2-(2,5-dioxo-pyrrolidin-1-yl)-ethoxy]-3-methyl-benzyl}-amino)-cyclobutanecarboxylic acid]
12 | 240 | Cc1cc(CN(C(C)c2ccc3c(c2)CCO3)[C@H]2C[C@@H](C(=O)O)C2)ccc1OCCn1c(=O)ccn(C)c1=O (stereo partly drawn) [Example 134, cis-3-([1-(2,3-Dihydro-benzofuran-5-yl)-ethyl]-{3-methyl-4-[2-(3-methyl-2,6-dioxo-3,6-dihydro-2H-pyrimidin-1-yl)-ethoxy]-benzyl}-amino)-cyclobutanecarboxylic acid]
13 | 347 | Cc1cc(CN([C@H]2C[C@@H](C(=O)O)C2)[C@H](C)c2ccc(Cl)cc2)ccc1OCCn1c(=O)ccn(C)c1=O [Example 136, cis-3-([(R)-1-(4-Chloro-phenyl)-ethyl]-{3-methyl-4-[2-(3-methyl-2,6-dioxo-3,6-dihydro-2H-pyrimidin-1-yl)-ethoxy]-benzyl}-amino)-cyclobutanecarboxylic acid]
14 | 104 | COc1cc(CN(C(C)c2ccc(Cl)c(Cl)c2)[C@H]2C[C@@H](C(=O)O)C2)ccc1OCCN1C(=O)CCC1=O (stereo partly drawn) [Example 137, cis-3-([1-(3,4-Dichloro-phenyl)-ethyl]-{4-[2-(2,5-dioxo-pyrrolidin-1-yl)-ethoxy]-3-methoxy-benzyl}-amino)-cyclobutanecarboxylic acid]
15 | 670 | Cc1cc(CN(C(C)c2ccc(Cl)c(Cl)c2)[C@H]2C[C@@H](C(=O)O)C2)ccc1OCCN1C(=O)CCC1=O (stereo partly drawn) [Example 138, cis-3-([1-(3,4-Dichloro-phenyl)-ethyl]-{4-[2-(2,5-dioxo-pyrrolidin-1-yl)-ethoxy]-3-methyl-benzyl}-amino)-cyclobutanecarboxylic acid]
16 | 1200 | CCc1cc(CN(C(C)c2ccc(Cl)c(Cl)c2)[C@H]2C[C@@H](C(=O)O)C2)ccc1OCCN1C(=O)CCC1=O (stereo partly drawn) [Example 139, cis-3-([1-(3,4-Dichloro-phenyl)-ethyl]-{4-[2-(2,5-dioxo-pyrrolidin-1-yl)-ethoxy]-3-ethyl-benzyl}-amino)-cyclobutanecarboxylic acid]
17 | 260 | CCc1cc(CN(C(C)c2ccc(Cl)c(F)c2)[C@H]2C[C@@H](C(=O)O)C2)ccc1OCCN1C(=O)CCC1=O (stereo partly drawn) [Example 140, cis-3-([1-(4-Chloro-3-fluoro-phenyl)-ethyl]-{4-[2-(2,5-dioxo-pyrrolidin-1-yl)-ethoxy]-3-ethyl-benzyl}-amino)-cyclobutanecarboxylic acid]
18 | 200 | CCC(c1ccc(Cl)c(Cl)c1)N(Cc1ccc(OCCN2C(=O)CCC2=O)c(OC)c1)[C@H]1C[C@@H](C(=O)O)C1 (stereo partly drawn) [Example 141, cis-3-([1-(3,4-Dichloro-phenyl)-propyl]-{4-[2-(2,5-dioxo-pyrrolidin-1-yl)-ethoxy]-3-methoxy-benzyl}-amino)-cyclobutanecarboxylic acid]
19 | 120 | COc1cc(CN(C(C)c2ccc(Cl)c(F)c2)[C@H]2C[C@@H](C(=O)O)C2)ccc1OCCN1C(=O)CCC1=O (stereo partly drawn) [Example 142, cis-3-([1-(4-Chloro-3-fluoro-phenyl)-ethyl]-{4-[2-(2,5-dioxo-pyrrolidin-1-yl)-ethoxy]-3-methoxy-benzyl}-amino)-cyclobutanecarboxylic acid]
20 | 3000 | Cc1cc(CN([C@H]2C[C@@H](C(=O)O)C2)[C@H](C)c2ccc(Cl)cc2)ccc1CCCN1C(=O)CCC1=O [Example 143, cis-3-([(R)-1-(4-Chloro-phenyl)-ethyl]-{4-[3-(2,5-dioxo-pyrrolidin-1-yl)-propyl]-3-methyl-benzyl}-amino)-cyclobutanecarboxylic acid]
21 | 167 | COc1cc(CN(C[C@H]2CC[C@H](C(=O)O)CC2)C(C)c2ccc3c(c2)CCC3)ccc1OCCN1C(=O)CCC1=O (stereo partly drawn) [Example 144, trans-4-{[{4-[2-(2,5-Dioxo-pyrrolidin-1-yl)-ethoxy]-3-methoxy-benzyl}-(1-indan-5-yl-ethyl)-amino]-methyl}-cyclohexanecarboxylic acid]
22 | 146 | COc1cc(CN(C[C@H]2CC[C@H](C(=O)O)CC2)C(C)c2ccc3c(c2)CCC3)ccc1OCCN1C(=O)CN(C)C1=O (stereo partly drawn) [Example 145, trans-4-[((1-Indan-5-yl-ethyl)-{3-methoxy-4-[2-(3-methyl-2,5-dioxo-imidazolidin-1-yl)-ethoxy]-benzyl}-amino)-methyl]-cyclohexanecarboxylic acid]
23 | 254 | COc1cc(CN(C[C@H]2CC[C@H](C(=O)O)CC2)[C@H]2CCc3cc(Cl)ccc32)ccc1OCCN1C(=O)C2CC2C1=O (stereo partly drawn) [Example 146, -4-[(((S)-5-Chloro-indan-1-yl)-{4-[2-(2,4-dioxo-3-aza-bicyclo[3.1.0]hex-3-yl)-ethoxy]-3-methoxy-benzyl}-amino)-methyl]-cyclohexanecarboxylic acid]
24 | 7000 | COc1cc(CN(C[C@H]2CC[C@H](C(=O)O)CC2)[C@H]2CCc3cc(Cl)ccc32)ccc1OCCN1C(=O)CC2(CCCC2)CC1=O [Example 147, 4-[(((S)-5-Chloro-indan-1-yl)-{4-[2-(7,9-dioxo-8-aza-spiro[4.5]dec-8-yl)-ethoxy]-3-methoxy-benzyl}-amino)-methyl]-cyclohexanecarboxylic acid]
25 | 26 | COc1cc(CN(C[C@H]2CC[C@H](C(=O)O)CC2)[C@H]2CCc3c2ccc(Cl)c3F)ccc1OCCN1C(=O)CCC1=O [Example 148, trans-4-[(((S)-5-Chloro-4-fluoro-indan-1-yl)-{4-[2-(2,5-dioxo-pyrrolidin-1-yl)-ethoxy]-3-methoxy-benzyl}-amino)-methyl]-cyclohexanecarboxylic acid]

Same assay, conditions: read-out: % at 10 μM; at 10 μM; displacement of 125I-CXCL10

Row | inhibition at 10 µM [%] | SMILES
26 | 24 | Cc1cc(CN(C(C)c2ccc(Cl)c(F)c2)[C@H]2C[C@H](C(=O)O)C2)ccc1OCCN1C(=O)CCC1=O (stereo partly drawn) [Example 124, trans-3-([1-(4-Chloro-3-fluoro-phenyl)-ethyl]-{4-[2-(2,5-dioxo-pyrrolidin-1-yl)-ethoxy]-3-methyl-benzyl}-amino)-cyclobutanecarboxylic acid]
27 | 37 | Cc1cc([C@@H](C)N(Cc2ccc(OCCN3C(=O)CCC3=O)c(C)c2)[C@H]2C[C@H](C(=O)O)C2)ccc1Cl [Example 128, trans-3-([(R)-1-(4-Chloro-3-methyl-phenyl)-ethyl]-{4-[2-(2,5-dioxo-pyrrolidin-1-yl)-ethoxy]-3-methyl-benzyl}-amino)-cyclobutanecarboxylic acid]
